System: Phospholipidosis
Test: Literature-mined public compounds from Kruhlak et al phospholipidosis modelling dataset

COCCc1ccc(OCC(O)CNC(C)C)cc1 (stereo not given) [METOPROLOL]
Phospholipidosis: Negative: based on the absence of positive reported data from WMDD

CC(=O)Nc1c(I)c(C(=O)O)c(I)c(N(C)C(C)=O)c1I [METRIZOIC ACID]
Phospholipidosis: Negative: based on the absence of positive reported data from WMDD

Cc1ncc([N+](=O)[O-])n1CCO [METRONIDAZOLE]
Phospholipidosis: Negative: based on the absence of positive reported data from WMDD

CC(C)(C(=O)c1cccnc1)c1cccnc1 [METYRAPONE]
Phospholipidosis: Negative: based on the absence of positive reported data from WMDD

CC1(C)S[C@@H]2[C@H](NC(=O)[C@H](NC(=O)N3CCN(S(C)(=O)=O)C3=O)c3ccccc3)C(=O)N2[C@H]1C(=O)O [MEZLOCILLIN]
Phospholipidosis: Negative: based on the absence of positive reported data from WMDD

CN1CCN2c3ccccc3Cc3ccccc3C2C1 (stereo not given) [MIANSERIN]
Phospholipidosis: Positive: weak inducer based on presence of foamy macrophages and cytoplasmic vacuolations

Cc1ncc2n1-c1ccc(Cl)cc1C(c1ccccc1F)=NC2 [MIDAZOLAM]
Phospholipidosis: Negative: based on the absence of positive reported data from WMDD

CCCCC(C)(O)C/C=C/[C@H]1[C@H](O)CC(=O)[C@@H]1CCCCCCC(=O)OC (stereo not given in full) [MISOPROSTOL]
Phospholipidosis: Negative: based on the absence of positive reported data from WMDD

O[C@@H]([C@H](O)[C@H](O)CBr)[C@H](O)CBr [MITOBRONITOL]
Phospholipidosis: Negative: based on the absence of positive reported data from WMDD

NC(=O)C[S+]([O-])C(c1ccccc1)c1ccccc1 (stereo not given) [MODAFINIL]
Phospholipidosis: Negative: based on the absence of positive reported data from WMDD

CCOC(=O)[C@H](CCc1ccccc1)N[C@@H](C)C(=O)N1Cc2cc(OC)c(OC)cc2C[C@H]1C(=O)O [MOEXIPRIL]
Phospholipidosis: Negative: based on the absence of positive reported data from WMDD

CCc1c(C)[nH]c2c1C(=O)C(CN1CCOCC1)CC2 (stereo not given) [MOLINDONE]
Phospholipidosis: Negative: based on the absence of positive reported data from WMDD

CCOC(=O)Nc1ccc2c(c1)N(C(=O)CCN1CCOCC1)c1ccccc1S2 [MORICIZINE]
Phospholipidosis: Negative: based on the absence of positive reported data from WMDD

CC(=O)Oc1cc(C(C)C)c(OCCN(C)C)cc1C [MOXISYLYTE]
Phospholipidosis: Negative: based on the absence of positive reported data from WMDD

CCn1cc(C(=O)O)c(=O)c2ccc(C)nc21 [NALIDIXIC ACID]
Phospholipidosis: Negative: based on the absence of positive reported data from WMDD

C[C@]12CC[C@H]3[C@@H](CCC4=CC(=O)CC[C@@H]43)[C@@H]1CC[C@@H]2O [NANDROLONE]
Phospholipidosis: Negative: based on the absence of positive reported data from WMDD

C[C@@H]1C/C=C/C=C/C=C/C=C/[C@H](O[C@@H]2O[C@H](C)[C@@H](O)[C@H](N)[C@@H]2O)C[C@@H]2O[C@](O)(C[C@@H](O)C[C@H]3O[C@@H]3/C=C/C(=O)O1)C[C@H](O)[C@H]2C(=O)O [NATAMYCIN]
Phospholipidosis: Negative: based on the absence of positive reported data from WMDD

CCc1nn(CCCN2CCN(c3cccc(Cl)c3)CC2)c(=O)n1CCOc1ccccc1 [NEFAZODONE]
Phospholipidosis: Negative: based on the absence of positive reported data from WMDD

CCN[C@@H]1C[C@H](N)[C@@H](O[C@H]2OC(CN)=CC[C@H]2N)[C@H](O)[C@H]1O[C@H]1OC[C@](C)(O)[C@H](NC)[C@H]1O [NETILMICIN]
Phospholipidosis: Positive: strong inducer confirmed by electron microscopy

O=C(O)c1cccnc1 [NIACIN]
Phospholipidosis: Negative: based on the absence of positive reported data from WMDD

O=C(OC[C@H]1O[C@](O)(COC(=O)c2cccnc2)[C@@H](OC(=O)c2cccnc2)[C@@H]1OC(=O)c1cccnc1)c1cccnc1 [NICOFURANOSE]
Phospholipidosis: Negative: based on the absence of positive reported data from WMDD

CN1C(=O)CN=C(c2ccccc2)c2cc([N+](=O)[O-])ccc21 [NIMETAZEPAM]
Phospholipidosis: Negative: based on the absence of positive reported data from WMDD

COCCOC(=O)C1=C(C)NC(C)=C(C(=O)OC(C)C)C1c1cccc([N+](=O)[O-])c1 (stereo not given) [NIMODIPINE]
Phospholipidosis: Negative: based on the absence of positive reported data from WMDD

O=C1CN=C(c2ccccc2)c2cc([N+](=O)[O-])ccc2N1 [NITRAZEPAM]
Phospholipidosis: Negative: based on the absence of positive reported data from WMDD

CCOC(=O)C1=C(C)NC(C)=C(C(=O)OC)C1c1cccc([N+](=O)[O-])c1 (stereo not given) [NITRENDIPINE]
Phospholipidosis: Negative: based on the absence of positive reported data from WMDD

O=C1CN(/N=C/c2ccc([N+](=O)[O-])o2)C(=O)N1 [NITROFURANTOIN]
Phospholipidosis: Negative: based on the absence of positive reported data from WMDD

CN1Cc2c(N)cccc2C(c2ccccc2)C1 (stereo not given) [NOMIFENSINE]
Phospholipidosis: Negative: based on the absence of positive reported data from WMDD

Clc1ccc(C(c2ccccc2)N2CCNCC2)cc1 (stereo not given) [NORCHLORCYCLIZINE]
Phospholipidosis: Positive: strong inducer confirmed by electron microscopy

CC[C@]1(O)CC[C@H]2[C@@H]3CCC4=CC(=O)CC[C@@H]4[C@H]3CC[C@@]21C [NORETHANDROLONE]
Phospholipidosis: Negative: based on the absence of positive reported data from WMDD

C#C[C@]1(OC(C)=O)CC[C@H]2[C@@H]3CCC4=CC(=O)CC[C@@H]4[C@H]3CC[C@@]21C [NORETHINDRONE ACETATE]
Phospholipidosis: Negative: based on the absence of positive reported data from WMDD

CNCCC=C1c2ccccc2CCc2ccccc21 [NORTRIPTYLINE]
Phospholipidosis: Positive: strong inducer confirmed by electron microscopy

CO[C@@H]1[C@@H](OC(N)=O)[C@@H](O)[C@H](Oc2ccc3c(O)c(NC(=O)c4ccc(O)c(CC=C(C)C)c4)c(=O)oc3c2C)OC1(C)C [NOVOBIOCIN]
Phospholipidosis: Negative: based on the absence of positive reported data from WMDD

CN(C)CCON=C1c2ccccc2CCc2ccccc21 [NOXIPTILINE]
Phospholipidosis: Positive: weak inducer based on presence of foamy macrophages and cytoplasmic vacuolations

CC1COc2c(N3CCN(C)CC3)c(F)cc3c(=O)c(C(=O)O)cn1c23 (stereo not given) [OFLOXACIN]
Phospholipidosis: Negative: confirmed by electron microscopy

Cc1cc2c(s1)Nc1ccccc1N=C2N1CCN(C)CC1 [OLANZAPINE]
Phospholipidosis: Negative: based on the absence of positive reported data from WMDD

O=C(O)c1cc(/N=N/c2ccc(O)c(C(=O)O)c2)ccc1O [OLSALAZINE]
Phospholipidosis: Negative: based on the absence of positive reported data from WMDD

COc1ccc2[nH]c([S+]([O-])Cc3ncc(C)c(OC)c3C)nc2c1 (stereo not given) [OMEPRAZOLE]
Phospholipidosis: Negative: based on the absence of positive reported data from WMDD

OCCN1CCN(CCCN2c3ccccc3C=Cc3ccccc32)CC1 [OPIPRAMOL]
Phospholipidosis: Negative: based on the absence of positive reported data from WMDD

CC(C)NCC1CCc2cc(CO)c([N+](=O)[O-])cc2N1 (stereo not given) [OXAMNIQUINE]
Phospholipidosis: Negative: based on the absence of positive reported data from WMDD

C[C@]12COC(=O)C[C@@H]1CC[C@@H]1[C@@H]2CC[C@@]2(C)[C@H]1CC[C@]2(C)O [OXANDROLONE]
Phospholipidosis: Negative: based on the absence of positive reported data from WMDD
